In US4582823A, “Method for treating schizophrenia and medicaments therefor” (Warner-Lambert Company, priority 1984, dated 1986):
“Also recorded” adds a separate entry of the source. Like-named read-outs stand apart in the source and are kept apart here.

Key:
[1] = test system: haloperidol-induced dystonia in Cebus monkeys; details: for # showing dystonia/Total: time 0
Description: (§1) On test days, animals were given N^6 -(2,2-diphenylethyl)adenosine before or after haloperidol. Drugs were prepared as suspensions in 0.2% Methocel for oral and IP injection. Solutions for IM injections of haloperidol were made using lactic acid and of the adenosine using ethanol.

[2] = test system: haloperidol-induced dystonia in Cebus monkeys; test: Effect of N^6-(2,2-diphenylethyl)adenosine and haloperidol given together orally (capsule or gavage) on dystonia in Cebus monkeys; details: for # showing dystonia/Total: haloperidol 0.5 PO capsule, time 0
Description: as §1

Sprague-Dawley male rats = test: rat locomotor activity (darkened actophotometer, 30 minutes); assay type: in vivo; details: for Locomotor Activity, % Of Control ± SEM: 1 hr before test
Description: Sprague-Dawley male rats were used.
Each animal was then placed in a darkened actophotometer and locomotor activity was recorded automatically by a microcomputer for 30 minutes. Locomotor activity data were compared to the mean response of vehicle treated control and were expressed as percentage of activity relative to control.

[3] = test system: haloperidol-induced dystonia in Cebus monkeys; test: Attempted reversal of haloperidol-induced dystonia in sensitized Cebus monkeys; assay type: in vivo, Cebus monkeys (Cebus appella); details: for # Reversed/Total: adenosine 8 mpk IM
Description: as §1

O=C(CCCN1CCC(O)(c2ccc(Cl)cc2)CC1)c1ccc(F)cc1 [Haloperidol, reference compound]
dystonic reactions in sensitized monkeys ([1]; Cebus monkey, haloperidol 0.2 mpk PO): dystonic reactions were consistently manifest
# showing dystonia/Total ([1]; adenosine 0 mpk IP, haloperidol 0.05 mpk IM, +30 Min.): 5/5
onset of action (dystonia) ([1]; monkey, in vivo): 3 to 7 min
onset of action (dystonia) ([1]; monkey, in vivo, po): 60 to 180 min
monkeys with dystonia ([2]; haloperidol alone 0.5 mg/kg in a capsule): 5 of 5
# showing dystonia/Total ([2]; no adenosine): 5/5
Locomotor Activity, % Of Control ± SEM (Sprague-Dawley male rats; oral, Vehicle 5 ml/kg + HPD 0.1 mg/kg, n=8 (run with 3 mg/kg adenosine)): 80.4 ± 10.2 % Of Control
Locomotor Activity, % Of Control ± SEM (Sprague-Dawley male rats; oral, Vehicle 5 ml/kg + HPD 0.1 mg/kg, n=9 (run with 1 mg/kg adenosine)): 108.6 ± 8.6 % Of Control
Locomotor Activity, % Of Control ± SEM (Sprague-Dawley male rats; oral, Vehicle 5 ml/kg + HPD 0.3 mg/kg, n=9 (run with 1 mg/kg adenosine)): 46.0 ± 7.2 % Of Control
Locomotor Activity, % Of Control ± SEM (Sprague-Dawley male rats; oral, Vehicle 5 ml/kg + HPD 0.3 mg/kg, n=17 (run with 3 mg/kg adenosine)): 44.0 ± 4.5 % Of Control
Locomotor Activity, % Of Control ± SEM (Sprague-Dawley male rats; oral, Vehicle 5 ml/kg + HPD 1.0 mg/kg, n=9 (run with 1 mg/kg adenosine)): 21.8 ± 2.9 % Of Control
Locomotor Activity, % Of Control ± SEM (Sprague-Dawley male rats; oral, Vehicle 5 ml/kg + HPD 1.0 mg/kg, n=17 (run with 3 mg/kg adenosine)): 18.0 ± 2.5 % Of Control
Locomotor Activity, % Of Control ± SEM (Sprague-Dawley male rats; oral, Vehicle 5 ml/kg + HPD 3.0 mg/kg, n=9 (run with 3 mg/kg adenosine)): 8.2 ± 2.1 % Of Control

OC[C@H]1O[C@@H](n2cnc3c(NCC(c4ccccc4)c4ccccc4)ncnc32)[C@H](O)[C@@H]1O [N^6-(2,2-Diphenylethyl)adenosine]
effect on severity of established dystonia ([3]; Cebus monkey, adenosine 8 mpk IM after dystonias induced by haloperidol (IM or PO)): no effect on the severity of dystonia
reversal of ongoing dystonia (conclusion) ([3]; Cebus monkey, adenosine IM): did not reverse ongoing dystonia induced by haloperidol
# Reversed/Total ([3]; +30 Min. after haloperidol 0.05 IM): 0/6
# Reversed/Total ([3]; +90 Min. after haloperidol 0.5 PO): 0/6
animals in which haloperidol-induced dystonia was not blocked ([1]; Cebus monkey, adenosine 8 mg/kg IM, haloperidol 0.5 mg/kg PO): 3/6
blocking of haloperidol-induced dystonia by IM route (in words) ([1]; Cebus monkey, adenosine IM versus other routes): less effective in blocking haloperidol-induced dystonia than when administered by other routes
intensity of dystonia in animals displaying dystonia after combined treatment ([1]; Cebus monkey, adenosine IP + haloperidol, relative to absence of the adenosine): less intense than those seen in the absence of the adenosine
prevention of development of dystonia (in words) ([1]; Cebus monkey, adenosine IP together with haloperidol PO): prevented the development of dystonia in a dose dependent fashion
# showing dystonia/Total ([1]; adenosine 0.5 mpk IP, haloperidol 0.5 mpk PO): 5/5
# showing dystonia/Total ([1]; adenosine 1.5 mpk IP, haloperidol 0.5 mpk PO): 4/6
# showing dystonia/Total ([1]; adenosine 5 mpk IP, haloperidol 0.05 mpk IM, +30 Min.): 0/6
# showing dystonia/Total ([1]; adenosine 5 mpk IP, haloperidol 0.5 mpk PO): 1/6
# showing dystonia/Total ([1]; adenosine 20 mpk IP, haloperidol 0.05 mpk IM, +30 Min.): 0/6
# showing dystonia/Total ([1]; adenosine 20 mpk IP, haloperidol 0.5 mpk PO): 0/6
depression induced by the adenosine ([1]; monkey, in vivo): induced depression prior to the expected time of onset of the effects of haloperidol
onset of action (depression) ([1]; monkey, in vivo, ip): 5 to 10 min
prevention of dystonia (conclusion) ([1]; sensitized Cebus monkeys, adenosine administered prior to haloperidol): prevented the dystonia normally produced by haloperidol
effect on development or severity of dystonias (in words) ([2]; Cebus monkey, adenosine together with haloperidol orally by capsule): did not appreciably affect the development or severity of dystonias
animals with marked reduction in the severity of dystonia ([2]; adenosine 5 mg/kg PO + haloperidol 0.5 mg/kg in a solution by gavage): 4 of 5
# showing dystonia/Total ([2]; adenosine 5 mpk PO capsule): 5/6
prevention of dystonia, same capsule (conclusion) ([2]; adenosine and haloperidol in the same capsule): did not prevent dystonia induced by haloperidol
monkeys with dystonia ([2]; haloperidol 0.5 mg/kg with adenosine 5 mg/kg in a capsule): 5 of 6
severity of dystonia, gavage (conclusion) ([2]; solution of adenosine and haloperidol by gavage): reduced severity of dystonia
effect on haloperidol induced inhibition of rat locomotor activity (conclusion) (Sprague-Dawley male rats; combination with haloperidol): enhanced haloperidol induced inhibition of rat locomotor activity; also recorded: additive effect in combination with haloperidol
Locomotor Activity, % Of Control ± SEM (Sprague-Dawley male rats; oral, adenosine 1 mg/kg + HPD 0.1 mg/kg, n=9): 92.0 ± 2.8 % Of Control
Locomotor Activity, % Of Control ± SEM (Sprague-Dawley male rats; oral, adenosine 1 mg/kg + HPD 0.3 mg/kg, n=9): 40.7 ± 4.9 % Of Control
Locomotor Activity, % Of Control ± SEM (Sprague-Dawley male rats; oral, adenosine 1 mg/kg + HPD 1.0 mg/kg, n=9): 10.8 ± 2.6 % Of Control
Locomotor Activity, % Of Control ± SEM (Sprague-Dawley male rats; oral, adenosine 1 mg/kg + Vehicle 5 ml/kg, n=9): 93.8 ± 8.9 % Of Control
Locomotor Activity, % Of Control ± SEM (Sprague-Dawley male rats; oral, adenosine 3 mg/kg + HPD 0.1 mg/kg, n=8): 49.1 ± 10.0 % Of Control
Locomotor Activity, % Of Control ± SEM (Sprague-Dawley male rats; oral, adenosine 3 mg/kg + HPD 0.3 mg/kg, n=17): 21.6 ± 5.0 % Of Control
Locomotor Activity, % Of Control ± SEM (Sprague-Dawley male rats; oral, adenosine 3 mg/kg + HPD 1.0 mg/kg, n=17): 9.8 ± 2.1 % Of Control
Locomotor Activity, % Of Control ± SEM (Sprague-Dawley male rats; oral, adenosine 3 mg/kg + HPD 3.0 mg/kg, n=9): 4.3 ± 1.3 % Of Control
Locomotor Activity, % Of Control ± SEM (Sprague-Dawley male rats; oral, adenosine 3 mg/kg + Vehicle 5 ml/kg, n=17): 58.7 ± 5.2 % Of Control
alteration of haloperidol-induced inhibition of spontaneous locomotion (Sprague-Dawley male rats; oral, adenosine 1.0 mg/kg + haloperidol): did not significantly alter the dose-related inhibition of spontaneous locomotion caused by haloperidol
enhancement of haloperidol locomotor inhibition (Sprague-Dawley male rats; oral, adenosine 3.0 mg/kg + haloperidol 0.1 and 0.3 mg/kg): enhanced the locomotor inhibition
alteration of locomotion (Sprague-Dawley male rats; oral, adenosine alone 1.0 mg/kg): did not significantly alter locomotion
reduction of locomotion (Sprague-Dawley male rats; oral, adenosine alone 3.0 mg/kg): 50%
